In paper PMC12421899, “Structural and molecular basis for phosphate recognition by SAR11 bacteria” (mBio, 2025) one finds Kd data, which are given here for three compounds.

What is called Kd is the concentration at which binding is half-saturated.

Read-outs that look alike come from different tables or passages of the source.

For one test, the target named is CpPstS. The test can be described thus: MST-binding assay of CpPstS. On the set-up: species or system Candidatus Pelagibacter sp. HTCC7211. The following applies: 25°C. On the procedure: To analyze the binding affinity of CpPstS to phosphate, the microscale thermophoresis (MST)-binding assay was performed using the Monolith NT.115 instrument (NanoTemper Technologies GmbH). Based on previous studies showing that SAR11_1179 has a high binding affinity to phosphate ([33]), we purified the CpPstS protein under denaturing conditions and refolded it for the MST assay. […]. The high-affinity phosphate-binding affinity of CpPstS is consistent with that previously reported for SAR11_1179 ([33]). To further investigate the molecular mechanism underlying the high-affinity phosphate binding of CpPstS, we subsequently conducted structural biology studies on CpPstS.
Previous studies have shown that PstSCAB specifically transports inorganic phosphate ([10], [41], [42]). […] We therefore speculate that the larger substrate-binding cavity of CpPstS may allow it to bind to both phosphate and larger organic phosphorus compounds. To test this hypothesis, we conducted an MST-binding assay. […] […].
Using primers CppstS-F/CppstS-R, the CppstS gene was PCR amplified from the Candidatus Pelagibacter sp. HTCC7211 strain and inserted into the NdeI/XhoI restriction sites of the pET-22b vector containing a C-terminal His-tag (Table S3). The CpPstS and the selenomethionine (SeMet) derivative of CpPstS were expressed in E. coli BL21(DE3) cells under different culture conditions. For CpPstS protein expression for MST-binding assay, cells were cultured at 37°C in LB medium supplemented with 100 µg/mL ampicillin to an OD600 of 0.8–1.0, and induction was initiated with 0.35 mM isopropyl-β-D-thiogalactopyranoside (IPTG) at 15°C for 16 hours. For SeMet-CpPstS protein expression for crystallization, the SeMet-CpPstS protein was overexpressed in E. coli BL21(DE3) using M9 minimal medium supplemented with selenomethionine, lysine, leucine, valine, isoleucine, threonine, and phenylalanine ([50]). The overexpression was induced with 0.35 mM IPTG at 15°C for 16 hours. The purification of CpPstS for MST-binding assay was under denaturing conditions, cultured E. coli BL21(DE3) cells were collected by centrifugation, resuspended in lysis buffer (40 mM Tris-HCl [pH 8.0], 200 mM NaCl, 5% [vol/vol] glycerol, 2 mM EDTA, and 0.1 mM phenylmethanesulfonyl fluoride), and fractured by pressure crusher (JNBIO, China). The CpPstS protein was first purified by affinity chromatography on a Ni^2+-NTA column (Qiagen, Germany), washed with denaturing Ni binding buffer (8 M urea, 20 mM Tris, 250 mM NaCl, and 20 mM imidazole, pH 8.0) and eluted with denaturing Ni elution buffer (8 M urea, 20 mM Tris, 250 mM NaCl, and 250 mM imidazole, pH 8.0). […]
MST technology was used to quantify the binding affinities of NaH₂PO₄, Mpn, Glycerol-3P, and Glucose-6P to CpPstS. […]

Test [1] addresses Synechococcus sp. WH8102 PstS1a. Particulars: read-out: Kd of PstS1a for phosphate; cited from earlier work.
The target of test [2] is Synechococcus sp. WH8102 PstS1b. Particulars: read-out: Kd of PstS1b for phosphate; cited from earlier work.
Test [3] has as its target Synechococcus sp. WH8102 PstS2. The following applies: read-out: Kd of PstS2 for phosphate; cited from earlier work.
The mark [4] stands for this setting: 40 mM MES pH 7.2, 0.005% Tween-20, read-out: Kd of CpPstS for organic phosphorus compounds.

In the case of `O=C[C@H](O)[C@@H](O)[C@H](O)[C@H](O)COP(=O)(O)O` [glucose-6-phosphate], at CpPstS (setting [4]), the Kd amounted to 668 ± 253 µM.

Take `O=P(O)(O)OCC(O)CO` (stereo not shown) [glycerol-3-phosphate]: the dissociation constant Kd on CpPstS (setting [4]) is 105 ± 44.6 µM.

Take phosphate: the Kd in test [1] is 3.3 µM; at CpPstS (refolded CpPstS, 40 mM MES pH 7.2, 0.005% Tween-20, NaH2PO4 titrated from 1.53 nM to 50 µM, listed as NaH2PO4, read-out: Kd (dissociation constant) of CpPstS for phosphate) it was 0.112 ± 0.0805 µM; at CpPstS (refolded CpPstS, 40 mM MES pH 7.2, 0.005% Tween-20, NaH2PO4 titrated from 1.53 nM to 50 µM, read-out: Kd (dissociation constant) of CpPstS for phosphate) it was 0.112 µM; in test [2] it was 0.44 µM; in test [3], 4.3 µM.
